Entries after “also recorded” stand apart in the source; their conditions may differ.
Key:
TAZ [1] = assay: TAZ silencing with AAV8-shTaz in FPC-fed C57BL/6J mice, FPC diet for 16 weeks; assay type: in vivo; details: FPC diet 16 weeks
Experimental: (§1) To study TAZ function in NASH development, FPC mice were treated with AAV8-shTaz vs. AAV8-control RNA. […] Mouse body weight, liver:body weight ratio, fasting blood glucose, plasma insulin, and plasma cholesterol were similar in the Taz shRNA and control groups.
The following antibodies were used for immunoblots: GAPDH (#3683), β-actin (#5125), CHOP (#5554), TAZ (#8418), p-eIF2α (#3398), eIF2α (#5324), Lamin A/C (#4777) from Cell Signaling; p-TAZ (sc-17610) and Col1a1 (sc-8784) from Santa Cruz; Ihh (ab39634) from Abcam; and Timp1 (AF980) from R & D. The following antibodies were using for immunostaining of liver: α-SMA (ACTA2) (C6198, F3777) and TAZ (HPA007415) from Sigma; F4/80 (MCA497GA) from AbD Serotec; Ly6g (#127601) from Biolegend; Ly6b (MCA771G) from Bio-Rad; OPN (AF808) from R & D; 4-hydroxynonenal (4-HNE) (AB5605) from Millipore; and HNF4α (sc-6556) from. Santa Cruz. The following plasma assay kits were used in this study: insulin ELISA (#90080) from. Crystal Chem; MCP1 ELISA (#88-7391-22) from eBiosciences; cholesterol (#439-17501) and triglyceride (#465-09791, #461-09891) from Wako; and ALT (#006A-CR) and AST (#004A-CR) from BQ Kits, Inc. AAV8-shRNA targeting murine Taz was made by annealing complementary oligonucleotides (5′-CACCAcagcegaatctcgcaatgaatCTCGAGATTCATTGCGAG ATTCGGCTG-3′) (SEQ ID NO:1), which were then ligated into the pAAV-RSV-GFP-H1 vector, as described previously (Lisowski et al., 2014). The resultant constructs were amplified by the Salk Institute Gene Transfer, Targeting, and Therapeutics Core.
(§2) Male wild-type mice C57BL/6J (#000664, 8-10 weeks/old) and MC4R-negative loxTB Mc4r mice (#006414, 6 weeks/old), referred to here as Mc4r^-/- mice, were obtained from Jackson Laboratory (Bar Harbor, ME) and were allowed to adapt to housing in the Columbia University Medical Center Institute of Comparative Medicine for 1 week prior to random assignment to experimental cohorts. The mice were then fed the following diets for the times indicated in the figure legends: (a) chow diet (Picolab rodent diet 20, #5053); (b) “fast-food” (FF). diet (TestDiet 1810060): high-fat diet with drinking water containing 42 g/L glucose and fructose (55%/45%, w/w); or (c) fructose-palmitate-cholesterol (“FPC”) diet (Teklad, TD.140154): similar to FF diet but with 1.25% added cholesterol and with palmitic acid, anhydrous milk fat, and Primex as the sources of fat and with a ˜60% decrease in vitamin E and a ˜35% decrease in choline compared with typical mouse diets. The detailed composition of these diets appear in Tables 1 and 2. For several experiments, groups of mice were placed on a methionine-choline-deficient diet (Teklad, TD. 90262) for 8 weeks, as described (Dixon et al., 2012). Adeno-associated virus (2×10^11 genome copy/mouse) was delivered by tail vein injection either 1 week prior to diet initiation or after 8 weeks of the FPC diet. Animals were housed in standard cages at 22° C. in a 12-12-h light-dark cycle. All animal experiments were performed in accordance with institutional guidelines and regulations and approved by the Institutional Animal Care and Use Committee at Columbia University.
Fasting blood glucose was measured using a glucose meter (One Touch Ultra, Life-scan) in mice that were fasted for 4-5 h, with free access to water. Complete blood counts were obtained with the FORCYTE Veterinary Hematology Analyzer (Oxford Science, Inc.). Total plasma triglyceride and cholesterol were assayed using a commercially available kit from Wako. For insulin, MCP1, AST, ALT, TC, TG are measured following kit instruction by using plasma.
Formalin-fixed, paraffin-embedded liver sections were stained with hematoxylin and eosin (H&E) and evaluated for severity of NAFLD by a trained hepatopathologist blinded to the clinical diagnosis, αaccording to criteria described by Brunt et al. (Kleiner et al., 2005; Liang et al., 2014). […]

TAZ [2] = assay: shTaz in the MCD (methionine/choline-deficient) diet model; assay type: in vivo, mice
Source text: Thus, in separate models of NASH, hepatic TAZ silencing improved key liver parameters related to inflammation, fibrosis, and cell death without affecting metabolic parameters or steatosis.
as §2

TAZ [3] = assay: TAZ silencing with AAV8-shTaz in FPC-fed hyperphagic Mc4r-/- mice, 16 weeks; assay type: in vivo; details: FPC diet 16 wks
Experimental: as §1, §2
Formalin-fixed, paraffin-embedded liver sections were stained with hematoxylin and eosin (H&E) and evaluated for severity of NAFLD by a trained hepatopathologist blinded to the clinical diagnosis, αaccording to criteria described by Brunt et al. (Kleiner et al., 2005; Liang et al., 2014). Liver fibrosis was assessed by Picrosirius (Sirius) red (Polysciences, #24901) or by Masson's trichrome staining (Sigma, HT15), with aniline blue-positive areas quantified as a measure of collagen content in the trichrome-stained. sections. TUNEL staining was conducted using a kit from Roche (#12156792910). For immunofluorescence microscsopy, paraffin sections were rehydrated, subjected to antigen retrieval by placing in a pressure cooker for 10 mins in Target Retrieval Solution (Dako, S1699), and then blocked with serum. Sections were labeled with primary antibodies overnight, using a 1:150 dilution except for α-SMA and 4-HNE (1:200) and TAZ (1:400), followed by incubation with a fluorophore-conjugated secondary antibody for 1 h. The stained sections were mounted with DAPI-containing mounting medium (Life Technologies, P36935) and then viewed on an Olympus IX 70 fluorescence microscope. For filipin (Sigma, F9765) staining, frozen sections were fixed in 4% paraformaldehyde for 1 h at room temperature, then rinsed using glycine/PBS and stained 0.25 mg/ml filipin 2 h at room temperature. Fluorescence microscopic images were analyzed using ImageJ software. For immunohistochemistry, the deparaffinization, rehydration, and antigen retrieval processes were the same as with immunofluorescence staining. The slides were treated with 3% hydrogen peroxide for 10 min and then blocked with Serum-Free Protein Block (Dako, X0909) for 30 min. Sections were incubated with OPN, F4/80, or α-SMA primary antibody (1:100) overnight and then developed using DAB substrate kit (Cell Signaling, #8059) for OPN and F4/80,FITC-labeled anti-HRP secondary antibody for α-SMA.
Hydroxyproline liver content was measured as previously described (Bataller et al., 2003; Seki et al., 2009). […]

TAZ [4] = assay: TAZ silencing after development of steatosis: AAV8-shTaz at week 8 of 16 weeks of FPC diet; assay type: in vivo, mice; details: shTaz at week 8, read at 16 weeks of FPC diet
Source text: To investigate the role of TAZ specifically in steatosis-to-NASH conversion, mice were first fed the FPC diet for 8 weeks and then injected with AA8-shTaz or control virus, followed by an additional 8 weeks on the diet. Note that 8 weeks of FPC diet caused steatosis but no appreciable inflammation or fibrosis (FIG. 6A).
as §2

5′-CACCAcagcegaatctcgcaatgaatCTCGAGATTCATTGCGAG ATTCGGCTG-3′ (DNA CACCACAGCCGAATCTCGCAATGAATCTCGAGATTCATTGCGAGATTCGGCTG; expressed or natural sequence) [AAV8-shTaz, AAV8-shRNA targeting murine Taz; annealed oligonucleotides ligated into the pAAV-RSV-GFP-H1 vector]
4-HNE+ liver cells (TAZ [1]): decrease | TUNEL+ liver cells (TAZ [1]): decrease | inflammatory cell infiltration in liver sections (TAZ [1]): marked reductions | plasma ALT (TAZ [1]): decreased | steatosis (TAZ [1]): not affected | hepatic Ihh protein (TAZ [1]; immunoblot): suppressed | F4/80+ macrophages (TAZ [1]; liver): decreases | expression of mRNAs related to fibrosis (Acta2, Timp1, Des, Col1a1, Col1a2, Col3a1, Vim) (TAZ [1]; liver): robust reduction | expression of mRNAs related to hepatic inflammation (Tnfa, Mcp1, F4/80 (Adgre1)) (TAZ [1]; liver): robust reduction | α-SMA+ cells (TAZ [1]; liver): decreases | silencing of TAZ in liver (immunoblot) (TAZ [1]; vs AAV8-control RNA): robust silencing | Mouse body weight (TAZ [1]; vs control group): similar | fasting blood glucose (TAZ [1]; vs control group): similar | liver:body weight ratio (TAZ [1]; vs control group): similar | plasma cholesterol (TAZ [1]; vs control group): similar | plasma insulin (TAZ [1]; vs control group): similar | fibrosis endpoints in liver sections (TAZ [1]; aniline blue, Sirius red): marked reductions | hepatic fibrosis (TAZ [2]): decreased | hepatic inflammation (TAZ [2]): decreased | macrophages in the liver (TAZ [2]): reduced | steatosis (TAZ [2]): without impacting | α-SMA+ cells in the liver (TAZ [2]): reduced | inflammatory and fibrotic gene expression (TAZ [2]; liver): reduced | hydroxyproline content of liver (TAZ [3]): lower; also recorded: reduced | liver inflammation (hepatic inflammatory cells) (TAZ [3]): decreased; also recorded: reduced | plasma ALT (TAZ [3]): reduced | staining for Sirius red (TAZ [3]; liver): decreased staining | staining for aniline blue (TAZ [3]; liver): decreased staining | staining for α-SMA (TAZ [3]; liver): decreased staining | F4/80+ macrophages (TAZ [4]): marked reductions | fibrosis endpoints (aniline blue- and Sirius red-positive areas) (TAZ [4]): marked reductions; also recorded: reduced | inflammatory cells (TAZ [4]): marked reductions; also recorded: reduced | inflammatory- and fibrosis-related genes (Tnfa, Mcp1, Tgfb1, Acta2 mRNA) (TAZ [4]): marked reductions; also recorded: reduced | plasma ALT (TAZ [4]): marked reductions; also recorded: reduced | α-SMA+ cells (TAZ [4]): marked reductions

Source: patent US12285464B2, “Therapeutic targets involved in the progression of nonalcoholic steatohepatitis (NASH)” (The Trustees of Columbia University in the City of New York, priority 2016, dated 2025)
